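The compound was tested at five concentrations on cells cultured in 96-well plates, with a 48-hour exposure period. Here, GI50 denotes the concentration required for 50% inhibition of growth.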 The source made the active and inactive calls. No stated cut-off is given here; in the data, active = GI50 up to about 1.1 µM and inactive = higher.
Columns and labels:
Assay in all cases: NCI anticancer screen, dose series, 48 h
U-251 = test system: U-251
EKVX = test system: EKVX
HOP-92 = test system: HOP-92
HT-29 = test system: HT-29
A498 = test system: A498
SNB-75 = test system: SNB-75
UO-31 = test system: UO-31
T47D = test system: T47D
K562 = test system: K562
RPMI-8226 = test system: RPMI-8226
MOLT-4 = test system: MOLT-4
NCI-H23 = test system: NCI-H23
KM12 = test system: KM12
TK-10 = test system: TK-10
Malme-3M = test system: Malme-3M
OVCAR-8 = test system: OVCAR-8
OVCAR-3 = test system: OVCAR-3
NCI/ADR-RES = test system: NCI/ADR-RES
HOP-62 = test system: HOP-62
DU-145 = test system: DU-145
SF-268 = test system: SF-268
OVCAR-4 = test system: OVCAR-4
HCT-116 = test system: HCT-116
OVCAR-5 = test system: OVCAR-5
COLO 205 = test system: COLO 205
NCI-H522 = test system: NCI-H522
HCT-15 = test system: HCT-15
HL-60 = test system: HL-60
A549 = test system: A549
786-0 = test system: 786-0
LOX IMVI = test system: LOX IMVI
SK-MEL-28 = test system: SK-MEL-28
RXF 393 = test system: RXF 393
Hs-578T = test system: Hs-578T
HCC 2998 = test system: HCC 2998
UACC-257 = test system: UACC-257
PC-3 = test system: PC-3
SK-MEL-5 = test system: SK-MEL-5
ACHN = test system: ACHN
CCRF-CEM = test system: CCRF-CEM
NCI-H460 = test system: NCI-H460
IGROV-1 = test system: IGROV-1
MDA-MB-231 = test system: MDA-MB-231
CAKI-1 = test system: CAKI-1
SW-620 = test system: SW-620
MCF7 = test system: MCF7
SN12C = test system: SN12C
SF-295 = test system: SF-295
SF-539 = test system: SF-539
SK-MEL-2 = test system: SK-MEL-2
MDA-N = test system: MDA-N
M14 = test system: M14
SK-OV-3 = test system: SK-OV-3
NCI-H226 = test system: NCI-H226
SNB-19 = test system: SNB-19
MDA-MB-435 = test system: MDA-MB-435
SR = test system: SR
UACC-62 = test system: UACC-62

With `O=c1ccn(-c2ccccn2)c(=O)n1-c1ccccn1` the GI50 (U-251) was > 100 µM (inactive), the GI50 (EKVX) was > 100 µM (inactive) and the GI50 (HOP-92) was > 100 µM (inactive). The GI50 (HT-29) was > 100 µM (inactive), the GI50 (A498) was > 100 µM (inactive) and the GI50 (SNB-75) was > 100 µM (inactive). For the same molecule, the GI50 (UO-31) was > 100 µM (inactive), the GI50 (T47D) was > 100 µM (inactive) and the GI50 (K562) was > 100 µM (inactive). The GI50 (RPMI-8226) was > 100 µM (inactive), the GI50 (MOLT-4) was > 100 µM (inactive) and the GI50 (NCI-H23) was > 100 µM (inactive). The GI50 (KM12) was > 100 µM (inactive), the GI50 (TK-10) was > 100 µM (inactive) and the GI50 (Malme-3M) was > 100 µM (inactive). For the same molecule, the GI50 (OVCAR-8) was > 100 µM (inactive), the GI50 (OVCAR-3) was > 100 µM (inactive) and the GI50 (NCI/ADR-RES) was > 100 µM (inactive). The GI50 (HOP-62) was > 100 µM (inactive), the GI50 (DU-145) was > 100 µM (inactive) and the GI50 (SF-268) was > 100 µM (inactive). For the same molecule, the GI50 (OVCAR-4) was > 100 µM (inactive), the GI50 (HCT-116) was > 100 µM (inactive) and the GI50 (OVCAR-5) was > 100 µM (inactive). The GI50 (COLO 205) was > 100 µM (inactive), the GI50 (NCI-H522) was > 100 µM (inactive) and the GI50 (HCT-15) was over 100 µM. For the same molecule, the GI50 (HL-60) was > 100 µM (inactive), the GI50 (A549) was > 100 µM (inactive) and the GI50 (786-0) was > 100 µM (inactive). The GI50 (LOX IMVI) was > 100 µM (inactive), the GI50 (SK-MEL-28) was > 100 µM (inactive) and the GI50 (RXF 393) was > 100 µM (inactive). For the same molecule, the GI50 (Hs-578T) was > 100 µM (inactive), the GI50 (HCC 2998) was > 100 µM (inactive) and the GI50 (UACC-257) was > 100 µM (inactive). The GI50 (PC-3) was > 100 µM (inactive), the GI50 (SK-MEL-5) was > 100 µM (inactive) and the GI50 (ACHN) was > 100 µM (inactive). The GI50 (CCRF-CEM) was > 100 µM (inactive), the GI50 (NCI-H460) was > 100 µM (inactive) and the GI50 (IGROV-1) was > 100 µM (inactive). The GI50 (MDA-MB-231) was > 100 µM (inactive), the GI50 (CAKI-1) was > 100 µM (inactive) and the GI50 (SW-620) was > 100 µM (inactive). The GI50 (MCF7) was > 100 µM (inactive), the GI50 (SN12C) was > 100 µM (inactive) and the GI50 (SF-295) was > 100 µM (inactive). The GI50 (SF-539) was > 100 µM (inactive), the GI50 (SK-MEL-2) was > 100 µM (inactive) and the GI50 (MDA-N) was > 100 µM (inactive). The GI50 (M14) was > 100 µM (inactive), the GI50 (SK-OV-3) was > 100 µM (inactive) and the GI50 (NCI-H226) was > 100 µM (inactive). For the same molecule, the GI50 (SNB-19) was > 100 µM (inactive) and the GI50 (MDA-MB-435) was > 100 µM (inactive).

For `CC(=O)OCC12CCC3C4(C)CCCC(C)(C)C4CCC3(C)C1CC(C1=CC(=O)OC1O)O2` (configuration not stated), the GI50 (EKVX) was 2.43 µM (inactive), the GI50 (HT-29) was 1.3 µM (inactive) and the GI50 (SR) was 0.244 µM (active). For the same molecule, the GI50 (SNB-75) was 1.76 µM (inactive), the GI50 (T47D) was 1.88 µM (inactive) and the GI50 (K562) was 0.776 µM (active). The GI50 (RPMI-8226) was 0.428 µM (active), the GI50 (MOLT-4) was 0.248 µM (active) and the GI50 (NCI-H23) was 1.69 µM (inactive). For the same molecule, the GI50 (KM12) was 1.82 µM (inactive), the GI50 (TK-10) was 1.9 µM (inactive) and the GI50 (Malme-3M) was 1.05 µM (active). The GI50 (OVCAR-8) was 1.38 µM (inactive), the GI50 (HOP-62) was 2.41 µM (inactive) and the GI50 (DU-145) was 2.07 µM (inactive). The GI50 (COLO 205) was 1.83 µM (inactive), the GI50 (HCT-15) was 0.92 µM and the GI50 (HL-60) was 0.513 µM (active). For the same molecule, the GI50 (A549) was 2.92 µM (inactive), the GI50 (786-0) was 1.09 µM (active) and the GI50 (LOX IMVI) was 1.18 µM (inactive). The GI50 (SK-MEL-28) was 1.53 µM (inactive), the GI50 (RXF 393) was 2.06 µM (inactive) and the GI50 (HCC 2998) was 1.84 µM (inactive). The GI50 (UACC-257) was 1.91 µM (inactive), the GI50 (PC-3) was 1.31 µM (inactive) and the GI50 (SK-MEL-5) was 1.86 µM (inactive). For the same molecule, the GI50 (CCRF-CEM) was 0.303 µM (active), the GI50 (IGROV-1) was 1.54 µM (inactive) and the GI50 (MDA-MB-231) was 1.75 µM (inactive). For the same molecule, the GI50 (CAKI-1) was 1.49 µM (inactive), the GI50 (SW-620) was 1.29 µM (inactive) and the GI50 (MCF7) was 1.24 µM (inactive). The GI50 (UACC-62) was 1.8 µM (inactive), the GI50 (SN12C) was 1.34 µM (inactive) and the GI50 (SF-295) was 2.34 µM (inactive). For the same molecule, the GI50 (MDA-N) was 1.53 µM (inactive), the GI50 (M14) was 1.42 µM (inactive) and the GI50 (SK-OV-3) was 2.47 µM (inactive).

In the case of `Cc1ccc(S(=O)(=O)N/N=C2\CC3C4CCC3C2C4)cc1` (configuration not stated), the GI50 (U-251) is reported as > 100 µM (inactive), the GI50 (EKVX) is reported as > 100 µM (inactive) and the GI50 (HOP-92) is reported as > 100 µM (inactive). The GI50 (HT-29) was > 100 µM (inactive), the GI50 (SR) was > 100 µM (inactive) and the GI50 (A498) was > 100 µM (inactive). For the same molecule, the GI50 (SNB-75) was 0.0859 µM (active), the GI50 (UO-31) was > 100 µM (inactive) and the GI50 (T47D) was > 100 µM (inactive). For the same molecule, the GI50 (K562) was > 100 µM (inactive), the GI50 (MOLT-4) was > 100 µM (inactive) and the GI50 (NCI-H23) was > 100 µM (inactive). For the same molecule, the GI50 (KM12) was > 100 µM (inactive), the GI50 (TK-10) was > 100 µM (inactive) and the GI50 (Malme-3M) was > 100 µM (inactive). For the same molecule, the GI50 (OVCAR-8) was > 100 µM (inactive), the GI50 (OVCAR-3) was > 100 µM (inactive) and the GI50 (NCI/ADR-RES) was > 100 µM (inactive). For the same molecule, the GI50 (HOP-62) was > 100 µM (inactive), the GI50 (DU-145) was > 100 µM (inactive) and the GI50 (SF-268) was > 100 µM (inactive). The GI50 (OVCAR-4) was > 100 µM (inactive), the GI50 (HCT-116) was > 100 µM (inactive) and the GI50 (OVCAR-5) was > 100 µM (inactive). The GI50 (COLO 205) was > 100 µM (inactive), the GI50 (NCI-H522) was > 100 µM (inactive) and the GI50 (HCT-15) was over 100 µM. The GI50 (HL-60) was > 100 µM (inactive), the GI50 (A549) was > 100 µM (inactive) and the GI50 (786-0) was > 100 µM (inactive). The GI50 (LOX IMVI) was > 100 µM (inactive), the GI50 (SK-MEL-28) was > 100 µM (inactive) and the GI50 (RXF 393) was > 100 µM (inactive). For the same molecule, the GI50 (Hs-578T) was > 100 µM (inactive), the GI50 (HCC 2998) was > 100 µM (inactive) and the GI50 (UACC-257) was > 100 µM (inactive). For the same molecule, the GI50 (PC-3) was > 100 µM (inactive), the GI50 (SK-MEL-5) was > 100 µM (inactive) and the GI50 (ACHN) was > 100 µM (inactive). For the same molecule, the GI50 (CCRF-CEM) was > 100 µM (inactive), the GI50 (NCI-H460) was > 100 µM (inactive) and the GI50 (IGROV-1) was > 100 µM (inactive). The GI50 (MDA-MB-231) was > 100 µM (inactive), the GI50 (CAKI-1) was > 100 µM (inactive) and the GI50 (SW-620) was > 100 µM (inactive). The GI50 (MCF7) was > 100 µM (inactive), the GI50 (UACC-62) was > 100 µM (inactive) and the GI50 (SN12C) was > 100 µM (inactive). The GI50 (SF-295) was > 100 µM (inactive), the GI50 (SF-539) was > 100 µM (inactive) and the GI50 (SK-MEL-2) was > 100 µM (inactive). For the same molecule, the GI50 (MDA-N) was > 100 µM (inactive), the GI50 (M14) was > 100 µM (inactive) and the GI50 (SK-OV-3) was > 100 µM (inactive). The GI50 (NCI-H226) was > 100 µM (inactive), the GI50 (SNB-19) was > 100 µM (inactive) and the GI50 (MDA-MB-435) was > 100 µM (inactive).

Source: ChEMBL document CHEMBL1201862, “PubChem BioAssay data set” (2004)
